This note sets out measurements from patent publication US6221676A, “DNA encoding human leukotriene C4 synthase, polypeptides and uses therefor” (Brigham and Women's Hospital, priority 1997, dated 2001).

In one assay the target is T1, LTC4 synthase (Homo sapiens, UniProt Q16873).
T1 construct: expressed in transfected cells; host or cells: COS-7 (lysate of transfectants; cDNA from a KG-1 library in pcDNA3)
T1 sequence (Q16873 1-150): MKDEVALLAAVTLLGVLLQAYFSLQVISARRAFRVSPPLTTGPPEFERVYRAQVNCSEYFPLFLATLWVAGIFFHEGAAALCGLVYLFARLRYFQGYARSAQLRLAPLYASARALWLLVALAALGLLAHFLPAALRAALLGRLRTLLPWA
Kind of assay: Inhibition of LTC4 synthase activity (conversion of LTA4-ME to LTC4-ME) in lysates of transfected COS-7 cells. It is filed as biochemical. On the procedure:
HPLC was carried out with a model 126 dual pump system and model 167 scanning UV detector (Beckman Instruments) controlled by an IBM PS2/50 computer using Beckman System Gold software. Samples were applied to a 5-μm 4.6×250-mm C18 Ultrasphere reverse phase column (Beckman Instruments) equilibrated with a solvent of methanol/acetonitrile/water/acetic acid (10:15:100:0.2, v/v), pH 6.0 (solvent A). After injection of the sample, the column was eluted at a flow rate of 1 ml/min with a programmed concave gradient (System Gold curve 6) to 30% solvent A and 70% pure methanol (solvent B) over 0.2 min. After 2.8 min more, solvent B was increased linearly to 90% over 2 min and was maintained at this level for an additional 10 min. UV absorbance at 280 nm and the UV spectra were recorded simultaneously. The retention times for PGB2 and LTC4 -ME were 8.5 and 10.1 min, respectively. LTC4 -ME was quantitated by calculating the ratio of the peak area to the area of the internal standard PGB2.
Dose-Response Assay using MK886
Cell lysates of the COS-7 cell transfectant containing SEQ ID NO.: 1 were incubated with 20 micromolar LTA4 -ME, 20 mM GSH, 5 mM MgCl2 in HEPES buffer (pH 7.6), in the presence of 0-10 micromolar MK-886 for 10 minutes at room temperature. Reactions were stopped by addition of 2 volumes of methanol containing 200 ng PGB2. Samples were analyzed by RP-HPLC.
Lysates from transfected COS cells were analysed for LTC4, the product of conjugating reduced glutathione with 5,6-oxido-7,9-E-11,14-Z-eicosatetraenoic acid. […] At 10 μM, MK-886 inhibits more than 90% of the enzyme activity.

Assay [1] can be described thus: Conjugation of GSH to 1-chloro-2,4-dintrobenzene by purified LTC4 synthase fraction. It is filed as biochemical. The settings on record: fraction purified from native KG-1 cells. The text has this:
Detergent-solubilize LTC4 synthase from 6×10^10 native KG-1 cells (using 0.4% deoxycholate, 0.4% Triton X-102, 10% glycerol) was purified by S-hexylglutathione-agarose chromatography using procedures adapted from Penrose et al., Proc. Nat. Acad. Sci., USA, 89:, above, followed by LTC2 affinity chromatography. Active fractions purified from the S-hexylglutathione-agarose column were combined, concentrated (Amicon, Danvers, Mass.) and then loaded onto an LTC2 affinity column equilibrated with buffer A and 0.1% Triton X-102. The column was washed with the same buffer and the enzyme was eluted with buffer A, containing 0.1% Triton X-102, 0.5 M NaCl and 5 mM reduced glutathione.
The LTC4 synthase activity contained a single 18-kDa protein by sodium dodecyl sulfate-polyacrylamide gel electrophoresis (NaDodSO4 -PAGE) with silver staining. […] A sample of the purified protein was concentrated and added to an equal volume of reducing buffer, and the mixture was boiled for 5 min. The reduced protein in this solution was bound to a polyvinylidene membrane by incubation overnight at 4° C. The bound protein was analyzed for N-terminal amino acid sequence by automated Edman degradation or was digested in situ with trypsin. Fernandez et al., Anal. Biochem., 201: 255-264 (1992). […]

In the case of `C[C@H](C#Cc1ccc(Oc2ccc(F)cc2)o1)N(O)C(N)=O` [A79175], the “effect on LTC4 synthase activity” value at LTC4 synthase (at a concentration of 10 μM, COS cell lysates) is “did not affect LTC4 synthase activity”. Usually IC50 stands for the concentration that gives 50% inhibition. Low values mean greater potency in that assay, high ones weaker potency in that assay. The term inhibition denotes the change of the read-out against control, counted positive when it falls. As to `CC(C)c1ccc2c(c1)c(SC(C)(C)C)c(CC(C)(C)C(=O)O)n2Cc1ccc(Cl)cc1` [MK-886], the IC50 is under 3 µM against LTC4 synthase (IC50, inhibition of conversion of LTA4-ME to LTC4-ME, 20 uM LTA4-ME, COS cell lysates, dose-dependent, 10 minutes, room temperature) and about 3 µM at LTC4 synthase (ID50, inhibition of LTC4 synthase activity, transfected COS cell lysates, dose-related (Discussion)). In addition, the inhibition at 10 µM at LTC4 synthase (read-out: inhibition of the enzyme activity) was over 90%.

B1: LTC4 synthase: 150-amino acid residue integral membrane protein with three hydrophobic transmembrane domains (protein, UniProt Q16873 1-150, looked up)
Leukotriene C4 synthase: MKDEVALLAAVTLLGVLLQAYFSLQVISARRAFRVSPPLTTGPPEFERVYRAQVNCSEYFPLFLATLWVAGIFFHEGAAALCGLVYLFARLRYFQGYARSAQLRLAPLYASARALWLLVALAALGLLAHFLPAALRAALLGRLRTLLPWA
For the molecule B1, in assay [1], the “conjugation of GSH to 1-chloro-2,4-dintrobenzene” value was “did not conjugate GSH to 1-chloro-2,4-dintrobenzene”.
